Reference: ChEMBL document CHEMBL1144158, “Synthesis and biological properties of 2-methylene-19-nor-25-dehydro-1alpha-hydroxyvitamin D(3)-26,23-lactones--weak agonists” (Bioorg Med Chem, 2008)
Activity calls are given as the source filed them. No cut-off for these calls is given here.

How the values were obtained:
Vitamin D3 receptor [1] = target: T1, Vitamin D3 receptor (Rattus norvegicus, UniProt P13053); assay: Activity at rat recombinant full length VDR expressed in rat ROS 17/2.8 cells transfected with 24-hydroxylase gene promoter assessed as transcriptional activation after 16 hrs by luciferase reporter gene assay
T1 sequence (P13053 whole entry): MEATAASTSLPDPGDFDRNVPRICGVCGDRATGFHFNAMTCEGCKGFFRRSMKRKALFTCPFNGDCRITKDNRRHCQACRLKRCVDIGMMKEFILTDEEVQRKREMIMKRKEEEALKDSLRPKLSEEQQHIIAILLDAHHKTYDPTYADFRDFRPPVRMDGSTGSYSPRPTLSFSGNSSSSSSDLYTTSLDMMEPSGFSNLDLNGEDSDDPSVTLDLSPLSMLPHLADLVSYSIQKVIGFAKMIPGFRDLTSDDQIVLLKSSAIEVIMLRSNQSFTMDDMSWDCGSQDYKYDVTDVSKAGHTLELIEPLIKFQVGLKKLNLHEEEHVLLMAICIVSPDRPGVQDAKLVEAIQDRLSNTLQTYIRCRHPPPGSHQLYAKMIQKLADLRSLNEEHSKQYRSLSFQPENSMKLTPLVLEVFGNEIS

Rattus norvegicus [2] = assay: Effect on bone calcium mobilization in vitamin D-deficient Sprague-Dawley rat assessed as serum calcium level at 960 pmol, ip administered 4 consecutive daily doses assessed after 24 hrs of last dose by spectrometry; type: functional
Rattus norvegicus [3] = assay: Effect on calcium transport in vitamin D-deficient Sprague-Dawley rat intestine assessed as ratio of serosal to mucosal calcium level at 960 pmol, ip administered 4 consecutive daily doses assessed after 24 hrs of last dose by gut sac assay; type: functional
Rattus norvegicus [4] = assay: Effect on calcium transport in vitamin D-deficient Sprague-Dawley rat intestine assessed as ratio of serosal to mucosal calcium level at 7800 pmol, ip administered 4 consecutive daily doses assessed after 24 hrs of last dose by gut sac assay; type: functional
Rattus norvegicus [5] = assay: Effect on bone calcium mobilization in vitamin D-deficient Sprague-Dawley rat assessed as serum calcium level at 320 pmol, ip administered 4 consecutive daily doses assessed after 24 hrs of last dose by spectrometry; type: functional
Rattus norvegicus [6] = assay: Effect on calcium transport in vitamin D-deficient Sprague-Dawley rat intestine assessed as ratio of serosal to mucosal calcium level at 260 pmol, ip administered 4 consecutive daily doses assessed after 24 hrs of last dose by gut sac assay; type: functional
HL-60 = assay: Induction of differentiation of human HL-60 cells promyelocytes to monocytes after 4 days by NBT reduction assay; type: functional, cell-based; conditions: HL-60, 96 h
Rattus norvegicus [7] = assay: Effect on bone calcium mobilization in vitamin D-deficient Sprague-Dawley rat assessed as serum calcium level at 7800 pmol, ip administered 4 consecutive daily doses assessed after 24 hrs of last dose by spectrometry; type: functional
Rattus norvegicus [8] = assay: Effect on calcium transport in vitamin D-deficient Sprague-Dawley rat intestine assessed as ratio of serosal to mucosal calcium level at 2340 pmol, ip administered 4 consecutive daily doses assessed after 24 hrs of last dose by gut sac assay; type: functional
Rattus norvegicus [9] = assay: Effect on calcium transport in vitamin D-deficient Sprague-Dawley rat intestine assessed as ratio of serosal to mucosal calcium level at 320 pmol, ip administered 4 consecutive daily doses assessed after 24 hrs of last dose by gut sac assay; type: functional
Vitamin D3 receptor [10] = target: T1, Vitamin D3 receptor; assay: Displacement of [3H]1-alpha,25-(OH)2D3 from rat recombinant full length VDR
[11] = target: T2, Vitamin D3 receptor (Rattus norvegicus) (UniProt P13053); assay: Antagonist activity at rat recombinant VDR expressed in rat ROS 17/2.8 cells transfected with 24-hydroxylase gene promoter assessed as 1-alpha,25-(OH)2D3-induced transcriptional activation at 0.001 uM to 0.1 uM after 16 hrs by luciferase reporter gene assay; type: functional, cell-based
T2 sequence (whole entry): T1 sequence (P13053 whole entry)

Rattus norvegicus [12] = assay: Effect on bone calcium mobilization in vitamin D-deficient Sprague-Dawley rat assessed as serum calcium level at 260 pmol, ip administered 4 consecutive daily doses assessed after 24 hrs of last dose by spectrometry; type: functional
Rattus norvegicus [13] = assay: Effect on bone calcium mobilization in vitamin D-deficient Sprague-Dawley rat assessed as serum calcium level at 2340 pmol, ip administered 4 consecutive daily doses assessed after 24 hrs of last dose by spectrometry; type: functional

| EC50 (Vitamin D3 receptor [1]) | EC50 (HL-60) | Ki (Vitamin D3 receptor [10]) | Activity [11] | Structure (SMILES) | Ratio (Rattus norvegicus [2]) | Ratio (Rattus norvegicus [3]) | Ratio (Rattus norvegicus [4]) | Ratio (Rattus norvegicus [5]) | Ratio (Rattus norvegicus [6]) | Ratio (Rattus norvegicus [7]) | Ratio (Rattus norvegicus [8]) | Ratio (Rattus norvegicus [9]) | Ratio (Rattus norvegicus [12]) | Ratio (Rattus norvegicus [13]) |
| --- | --- | --- | --- | --- | --- | --- | --- | --- | --- | --- | --- | --- | --- | --- |
| 100 nM | 2 nM | 2 nM |  | C=C1C[C@@H](C[C@@H](C)[C@H]2CC[C@H]3/C(=C/C=C4C[C@@H](O)C(=C)[C@H](O)C4)CCC[C@]23C)OC1=O | 3.8 | 5.9 | 11 | 3.7 | 5.6 | 4 | 9.6 | 5.1 |  |  |
|  |  |  | Active | C=C1[C@H](O)CC(=C/C=C2\CCC[C@]3(C)[C@@H]([C@H](C)/C=C/[C@@H](O)C4(C(=O)OCCCC)CC4)CC[C@@H]23)C[C@H]1O |  |  |  |  |  |  |  |  |  |  |
| 2 nM | 4 nM | 1 nM |  | C=C1C[C@H](C[C@@H](C)[C@H]2CC[C@H]3/C(=C/C=C4C[C@@H](O)C(=C)[C@H](O)C4)CCC[C@]23C)OC1=O |  |  |  |  | 7.6 |  | 9.5 |  | 4.4 | 4.2 |
